Data from patent publication US9073855B2, “BCL-2 selective apoptosis-inducing agents for the treatment of cancer and immune diseases” (AbbVie Inc., priority 2008, dated 2015).

Columns and labels:
[1] = target: GST-Bcl-XL (Homo sapiens, UniProt Q07817); test: TR-FRET binding assay, GST-Bcl-XL with F-Bak peptide probe; details: TR-FRET Binding Affinity
Outline: (§1)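 Ki was derived with Wang's equation for competitive binding of two ligands. The read-out was time-resolved fluorescence after a 3 h room-temperature incubation, using a Tb-labelled antibody donor and the F-Bak peptide acceptor (excitation 340/35 nm). Test compounds entered as DMSO serial dilutions starting at 50 μM, which was the 2× concentration.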

[2] = target: GST-Bcl-2 (Homo sapiens, UniProt P10415); test: TR-FRET binding assay, GST-Bcl-2 with F-Bak peptide probe; details: for Ki: TR-FRET Binding Affinity
Sequence of GST-Bcl-2 (P10415 whole entry): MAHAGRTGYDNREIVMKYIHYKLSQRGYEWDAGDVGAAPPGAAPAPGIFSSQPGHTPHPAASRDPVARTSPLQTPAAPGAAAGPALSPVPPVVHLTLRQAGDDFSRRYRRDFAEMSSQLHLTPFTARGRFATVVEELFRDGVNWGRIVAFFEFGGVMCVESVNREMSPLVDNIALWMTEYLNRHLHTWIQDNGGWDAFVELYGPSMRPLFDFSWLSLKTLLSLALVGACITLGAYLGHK
Outline: as §1

[3] = GST-Bcl-XL, F-Bak peptide probe
[4] = TR-FRET, Bcl-XL Ki divided by Bcl-2 Ki

Sequence of GST-Bcl-XL (Q07817 whole entry): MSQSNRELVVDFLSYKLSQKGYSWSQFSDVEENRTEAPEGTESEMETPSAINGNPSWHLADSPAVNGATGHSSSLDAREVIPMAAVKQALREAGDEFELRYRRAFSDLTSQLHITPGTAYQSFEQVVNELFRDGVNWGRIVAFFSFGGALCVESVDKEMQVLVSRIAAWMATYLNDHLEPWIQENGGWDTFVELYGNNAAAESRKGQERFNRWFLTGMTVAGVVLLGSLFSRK

Row | Compound | Ki [1, 3] [nM] | Ki ([2]; GST-Bcl-2, F-Bak peptide probe) [nM] | Binding selectivity ratio (Bcl-XL Ki/Bcl-2 Ki) ([2]; ratio of TR-FRET Ki values, Bcl-XL over Bcl-2) | Ki [1] [nM] | Ki [2] [nM] | Binding selectivity ratio (Bcl-XL Ki/Bcl-2 Ki) [2, 4]
1 | O=C(NS(=O)(=O)c1ccc(NCC2CCOCC2)c([N+](=O)[O-])c1)c1ccc(N2CCN(Cc3cc(OCCCN4CCCCC4)ccc3-c3ccc(Cl)cc3)CC2)cc1Oc1ccccc1 [Example 114, 4-(4-{[4′-chloro-4-(3-piperidin-1-ylpropoxy)-1,1′-biphenyl-2-yl]methyl}piperazin-1-yl)-N-({3-nitro-4-[(tetrahydro-2H-pyran-4-ylmethyl)amino]phenyl}sulfonyl)-2-phenoxybenzamide] | 14.3 | 0.096 | – | – | – | –
2 | CC1(C)CCC(CN2CCN(c3ccc(C(=O)NS(=O)(=O)c4ccc(NCC5CN(C6CC6)CCO5)c([N+](=O)[O-])c4)c(Oc4cccc5[nH]cnc45)c3)CC2)=C(c2ccc(Cl)cc2)C1 (stereo not drawn) [Example 432, 2-(1H-benzimidazol-4-yloxy)-4-(4-{[2-(4-chlorophenyl)-4,4-dimethylcyclohex-1-en-1-yl]methyl}piperazin-1-yl)-N-[(4-{[(4-cyclopropylmorpholin-2-yl)methyl]amino}-3-nitrophenyl)sulfonyl]benzamide] | 9.3 | 0.023 | 408.8 | – | – | –
3 | CC1(C)CN(c2ccc(S(=O)(=O)NC(=O)c3ccc(N4CCN(Cc5ccccc5-c5ccc(Cl)cc5)CC4)cc3Oc3ccccc3)cc2)C1=O [Example 30, 4-{4-[(4′-chloro-1,1′-biphenyl-2-yl)methyl]piperazin-1-yl}-N-{[4-(3,3-dimethyl-2-oxoazetidin-1-yl)phenyl]sulfonyl}-2-phenoxybenzamide] | > 660 | 103 | – | – | – | –
4 | CO[C@H]1CC[C@H](CNc2ccc(S(=O)(=O)NC(=O)c3ccc(N4CCN(CC5=C(c6ccc(Cl)cc6)CC(C)(C)CC5)CC4)cc3Oc3cccc4[nH]cnc34)cc2[N+](=O)[O-])CC1 [Example 440, Trans-2-(1H-benzimidazol-4-yloxy)-4-(4-{[2-(4-chlorophenyl)-4,4-dimethylcyclohex-1-en-1-yl]methyl}piperazin-1-yl)-N-[(4-{[(4-methoxycyclohexyl)methyl]amino}-3-nitrophenyl)sulfonyl]benzamide] | – | – | – | 45.5 | < 0.01 | –
5 | CC1(C)CCC(CN2CCN(c3ccc(C(=O)NS(=O)(=O)c4ccc(NCC5CN(C6COC6)CCO5)c([N+](=O)[O-])c4)c(Oc4cccc5[nH]cnc45)c3)CC2)=C(c2ccc(Cl)cc2)C1 (stereo not drawn) [Example 433, 2-(1H-benzimidazol-4-yloxy)-4-(4-{[2-(4-chlorophenyl)-4,4-dimethylcyclohex-1-en-1-yl]methyl}piperazin-1-yl)-N-[(3-nitro-4-{[(4-oxetan-3-ylmorpholin-2-yl)methyl]amino}phenyl)sulfonyl]benzamide] | 2.29 | < 0.01 | – | – | – | –
6 | CC1(C)CCC(CN2CCN(c3ccc(C(=O)NS(=O)(=O)c4ccc(NC[C@H]5CC[C@@](C)(O)CC5)c([N+](=O)[O-])c4)c(Oc4cccc5[nH]ncc45)c3)CC2)=C(c2ccc(Cl)cc2)C1 [Example 526, 4-(4-{[2-(4-chlorophenyl)-4,4-dimethylcyclohex-1-en-1-yl]methyl}piperazin-1-yl)-N-[(4-{[(cis-4-hydroxy-4-methylcyclohexyl)methyl]amino}-3-nitrophenyl)sulfonyl]-2-(1H-indazol-4-yloxy)benzamide] | – | – | – | 4.68 | < 0.01 | >467.9
7 | O=C(NS(=O)(=O)c1ccc(NCC2CCOCC2)c([N+](=O)[O-])c1)c1ccc(N2CCN(CC3=C(c4ccc(Cl)cc4)CCC(F)(F)C3)CC2)cc1Oc1cccc2[nH]ncc12 [Example 524, 4-(4-{[2-(4-chlorophenyl)-5,5-difluorocyclohex-1-en-1-yl]methyl}piperazin-1-yl)-2-(1H-indazol-4-yloxy)-N-({3-nitro-4-[(tetrahydro-2H-pyran-4-ylmethyl)amino]phenyl}sulfonyl)benzamide] | – | – | – | 22.2 | < 0.01 | >2218.4
8 | CC1(C)CCC(CN2CCN(c3ccc(C(=O)NS(=O)(=O)c4ccc(OCC5CCC6(CC5)COC6)c([N+](=O)[O-])c4)c(Oc4cccc5[nH]ncc45)c3)CC2)=C(c2ccc(Cl)cc2)C1 [Example 535, 4-(4-{[2-(4-chlorophenyl)-4,4-dimethylcyclohex-1-en-1-yl]methyl}piperazin-1-yl)-2-(1H-indazol-4-yloxy)-N-{[3-nitro-4-(2-oxaspiro[3.5]non-7-ylmethoxy)phenyl]sulfonyl}benzamide] | – | – | – | 2.5 | < 0.01 | >250.5
9 | CN(C)CCCNc1ccc(S(=O)(=O)NC(=O)c2ccc(N3CCN(Cc4ccccc4-c4ccc(Cl)cc4)CC3)cc2Oc2ccc3[nH]ccc3c2)cc1S(=O)(=O)C(F)(F)F [Example 64, 4-{4-[(4′-chloro-1,1′-biphenyl-2-yl)methyl]piperazin-1-yl}-N-({4-{[3-(dimethylamino)propyl]amino}-3-[(trifluoromethyl)sulfonyl]phenyl}sulfonyl)-2-(1H-indol-5-yloxy)benzamide] | 40.3 | 0.523 | – | – | – | –
10 | CC1(C)CCC(CN2CCN(c3ccc(C(=O)NS(=O)(=O)c4cnc(OCC5COCCO5)c(Cl)c4)c(Oc4cccc5[nH]ncc45)c3)CC2)=C(c2ccc(Cl)cc2)C1 (stereo not drawn) [Example 488, N-{[5-chloro-6-(1,4-dioxan-2-ylmethoxy)pyridin-3-yl]sulfonyl}-4-(4-{[2-(4-chlorophenyl)-4,4-dimethylcyclohex-1-en-1-yl]methyl}piperazin-1-yl)-2-(1H-indazol-4-yloxy)benzamide] | – | – | – | 23.5 | < 0.01 | >2345.9
11 | CC1(C)CCC(CN2CCN(c3ccc(C(=O)NS(=O)(=O)c4cnc(OC[C@@H]5CCN(CC(F)F)C5)c(Cl)c4)c(Oc4cccc5[nH]ncc45)c3)CC2)=C(c2ccc(Cl)cc2)C1 [Example 445, N-[(5-chloro-6-{[(3R)-1-(2,2-difluoroethyl)pyrrolidin-3-yl]methoxy}pyridin-3-yl)sulfonyl]-4-(4-{[2-(4-chlorophenyl)-4,4-dimethylcyclohex-1-en-1-yl]methyl}piperazin-1-yl)-2-(1H-indazol-4-yloxy)benzamide] | – | – | – | 13.6 | 0.028 | 484.2
12 | CN(C)CCCCNc1ccc(S(=O)(=O)NC(=O)c2ccc(N3CCN(Cc4ccccc4-c4ccc(Cl)cc4)CC3)cc2Oc2ccccc2)cc1[N+](=O)[O-] [Example 156, 4-{4-[(4′-chloro-1,1′-biphenyl-2-yl)methyl]piperazin-1-yl}-N-[(4-{[4-(dimethylamino)butyl]amino}-3-nitrophenyl)sulfonyl]-2-phenoxybenzamide] | 6.16 | 0.116 | – | – | – | –
13 | CC1(C)CCC(CN2CCN(c3ccc(C(=O)NS(=O)(=O)c4ccc(NC[C@H]5CN(C6CC6)CCO5)c([N+](=O)[O-])c4)c(Oc4cccc5[nH]ncc45)c3)CC2)=C(c2ccc(Cl)cc2)C1 [Example 529, 4-(4-{[2-(4-chlorophenyl)-4,4-dimethylcyclohex-1-en-1-yl]methyl}piperazin-1-yl)-N-{[4-({[(2S)-4-cyclopropylmorpholin-2-yl]methyl}amino)-3-nitrophenyl]sulfonyl}-2-(1H-indazol-4-yloxy)benzamide] | – | – | – | 8.28 | < 0.01 | >828.4
